Reference: US20130302282A1, “Inhibitors of Hepatitis C Virus” (priority 2010, published 2013)
Like-named read-outs stand apart in the source and are kept apart here.

System: 1b_Huh-Luc/Neo-ET cell line (bicistronic genotype 1b replicon in Huh 7 cells)
Experiment: HCV 1b replicon assay, luciferase readout
Type: cell-based, HCV genotype 1b
Conditions: Hepatitis C virus
Method: Biological activity of the compounds of the invention was determined using an HCV replicon assay. The 1b_Huh-Luc/Neo-ET cell line persistently expressing a bicistronic genotype 1b replicon in Huh 7 cells was obtained from ReBLikon GMBH. This cell line was used to test compound inhibition using luciferase enzyme activity readout as a measurement of compound inhibition of replicon levels.
On Day 1 (the day after plating), each compound is added in triplicate to the cells. Plates incubated for 72 […] prior to running the luciferase assay. Enzyme activity was measured using a Bright-Glo Kit (cat. number E2620) manufactured by Promega Corporation. The following equation was used to generate a percent control value for each compound.
%Control=(Average Compound Value/Average Control)*100
The EC50 value was determined using GraphPad Prism and the following equation:
Y=Bottom+(Top−Bottom)/(1+10̂((LogIC50−X)*HillSlope))
EC50 values of compounds are repeated several times in the replicon assay.

[1] = Huh-7, 1b_Huh-Luc/Neo-ET cell line, read-out: EC50, half-maximal inhibition of HCV 1b replication
[2] = Huh-7, class symbol, HCV genotype 1b replicon, read-out: Inhibition of HCV genotype 1b replicon

CNC(=O)c1c(-c2ccc(F)cc2)oc2cc3c(cc12)[C@@H](C)c1ccccc1CN3S(C)(=O)=O (single isomer, unassigned) [Compound B204] showed an EC50 [1] of 10 to 100 nM and an EC50 [2] of 10 to 100 nM.

CNC(=O)c1c(-c2ccc(F)cc2)oc2cc3c(cc12)C(C)OC(C(=O)NC)CN3S(C)(=O)=O (stereo not drawn) [Compound B229] showed an EC50 [1] of 10 to 100 nM and an EC50 [2] of 10 to 100 nM.

Compound CNC(=O)c1c(-c2ccc(Oc3ccc(F)cc3)cc2)oc2cc3c(cc12)C(C)OC(C)CN3S(C)(=O)=O (stereo not drawn) [Compound B168] has an EC50 [1] of no more than 10 nM and an EC50 [2] of less than 10 nM.

For CC1c2cc3c(-c4ncc[nH]4)c(-c4ccc(Oc5ccc(F)cc5)cc4)oc3cc2N(S(C)(=O)=O)CCN1C (stereo not drawn) [Compound B166], the EC50 [1] was 10 to 100 nM and the EC50 [2] was 10 to 100 nM.

Work on CNC(=O)c1c(-c2ccc(F)cc2)oc2cc3c(cc12)[C@H](C)O[C@@H](CCO)CN3S(C)(=O)=O [Compound B231] yielded an EC50 [1] of 10 to 100 nM and an EC50 [2] of 10 to 100 nM.

With CNC(=O)c1c(-c2ccc(F)cc2)nn2cc3c(cc12)C(C)CCCN3S(C)(=O)=O (stereo not drawn) [Compound B50] the EC50 [2] was 100 to 1000 nM.

CNC(=O)c1c(-c2ccc(F)cc2)oc2cc3c(cc12)C(C)NCCN3S(C)(=O)=O (stereo not drawn) [Compound B57] showed an EC50 [1] of 10 to 100 nM and an EC50 [2] of 10 to 100 nM.

CNC(=O)c1c(-c2ccc(F)cc2)oc2cc3c(cc12)C(O)C(C)(C)CCN3S(C)(=O)=O (stereo not drawn) [Compound B123] was tested, and the EC50 [1] was 10 to 100 nM and the EC50 [2] was 10 to 100 nM.

In the case of CNC(=O)c1c(-c2ccc(F)cc2)oc2cc3c(cc12)CCCCN3S(=O)(=O)C1CC1 [Compound B93], the EC50 [1] is reported as 10 to 100 nM and the EC50 [2] is reported as 10 to 100 nM.

Work on CNC(=O)c1c(-c2ccc(F)cc2)oc2cc3c(cc12)[C@H]1C[C@H]1CCN3S(C)(=O)=O (single isomer, unassigned) [Compound B133] yielded an EC50 [2] greater than 1000 nM.

In the case of CNC(=O)c1c(-c2ccc(Oc3ccc(F)cc3)cc2)oc2cc3c(cc12)C(C)N(C)C(=O)CN3S(C)(=O)=O (stereo not drawn) [Compound B174], the EC50 [1] is reported as 10 to 100 nM and the EC50 [2] is reported as 10 to 100 nM.

CNC(=O)c1c(-c2ccc(F)cc2)nn2cc3c(cc12)[C@@H](C)CCCN3S(C)(=O)=O (single isomer, unassigned) [Compound B51] gave an EC50 [2] greater than 1000 nM.

CS(=O)(=O)N1CCCCCc2cc3c(-c4ncc[nH]4)c(-c4ccc(F)cc4)oc3cc21 [Compound B130] showed an EC50 [1] of no more than 10 nM and an EC50 [2] of less than 10 nM.

CNC(=O)c1c(-c2ccc(Oc3ccc(F)cc3)cc2)oc2cc3c(cc12)[C@@H](C)O[C@@H](CS(C)(=O)=O)CN3S(C)(=O)=O [Compound B206] gave an EC50 [2] of 100 to 1000 nM.

In the case of CS(=O)(=O)N1CCCCCc2cc3c(-c4ncc[nH]4)c(-c4ccc(F)cc4)nn3cc21 [Compound B129], the EC50 [2] is reported as 10 to 100 nM.

CNC(=O)c1c(-c2ccc(F)cc2)oc2cc3c(cc12)C(C)OCC(CS(C)(=O)=O)N3S(C)(=O)=O (stereo not drawn) [Compound B225] showed an EC50 [1] of 10 to 100 nM and an EC50 [2] of 10 to 100 nM.

CNC(=O)c1c(-c2ccc(Oc3ccccc3)cc2)nn2cc3c(cc12)C(C)CCCN3S(C)(=O)=O (stereo not drawn) [Compound B90] was tested, and the EC50 [2] was 100 to 1000 nM.

C=C1CCCN(S(C)(=O)=O)c2cc3oc(-c4ccc(Oc5ccc(F)cc5)cc4)c(C(=O)NC)c3cc21 [Compound B46] gave an EC50 [2] of 100 to 1000 nM.

CNC(=O)c1c(-c2ccc(F)cc2)oc2cc3c(cc12)CCCCN3C(=O)OC [Compound B87] showed an EC50 [2] of 100 to 1000 nM.

Compound CNC(=O)c1c(-c2ccc(F)cc2)oc2cc3c(cc12)[C@@H](C)O[C@H](CO)CN3S(C)(=O)=O [Compound B217] has an EC50 [1] of 10 to 100 nM and an EC50 [2] of 10 to 100 nM.

Compound CNC(=O)c1c(-c2ccc(F)cc2)oc2cc3c(cc12)C(C)N(CC(=O)O)CCN3S(C)(=O)=O (stereo not drawn) [Compound B149] has an EC50 [2] greater than 1000 nM.

In the case of CNC(=O)c1c(-c2ccc(Oc3ccc(F)cc3)cc2)oc2cc3c(cc12)C(C)=CCCN3S(C)(=O)=O [Compound B48], the EC50 [1] is reported as 10 to 100 nM and the EC50 [2] is reported as 10 to 100 nM.

Work on CC1OCCN(S(C)(=O)=O)c2cc3oc(-c4ccc(Oc5ccc(F)cc5)cc4)c(-c4ncc[nH]4)c3cc21 (stereo not drawn) [Compound B202] yielded an EC50 [1] of 10 to 100 nM and an EC50 [2] of 10 to 100 nM.

CNC(=O)c1c(-c2ccc(F)cc2)oc2cc3c(cc12)C(C)n1nnnc1CN3S(C)(=O)=O (stereo not drawn) [Compound B189] was tested, and the EC50 [1] was 10 to 100 nM and the EC50 [2] was 10 to 100 nM.
